Data published in ChEMBL document CHEMBL4190196, “Kohamamides A, B, and C, Cyclic Depsipeptides from an Okeania sp. Marine Cyanobacterium” (J Nat Prod, 2017).
*1 amine or outer side, *2 acyl side, *3 side chain or, on linkers, in order; H or OH if unused. Where a SMILES comes first, the peptide text is derived from it. Bridges are numbered along the chain shown (N, C = ends). [ ]: non-standard residue; d: D form. X1 = C#CCCC[C@H](O[*:2])C(C)(C)C(=O)[*:1]; X2 = C=CCCC[C@H](O[*:2])C(C)(C)C(=O)[*:1]; X3 = CCCCC[C@H](O[*:2])C(C)(C)C(=O)[*:1]; Hmpa(2S,3S) = CC[C@H](C)[C@H](O)C(=O)O; NMeV = CN[C@H](C(=O)O)C(C)C

Columns and labels:
HL-60 = experiment: Growth inhibition of human HL60 cells after 72 hrs by MTT assay; type: functional, cell-based; conditions: HL-60, 72 h
HeLa = experiment: Growth inhibition of human HeLa cells after 72 hrs by MTT assay; type: functional, cell-based

Row | SMILES | IC50 (HL-60) [µM] | IC50 (HeLa) [µM]
1 | C#CCCC[C@@H]1OC(=O)[C@H](C)NC(=O)[C@H](CC(C)C)NC(=O)[C@@H]2CCCN2C(=O)[C@H]([C@@H](C)CC)OC(=O)[C@H](C(C)C)N(C)C(=O)[C@H](C(C)C)NC(=O)C1(C)C (V[NMeV][Hmpa(2S,3S)]PLA; linker N-C via X1) | 19 | 29
2 | C=CCCC[C@@H]1OC(=O)[C@H](C)NC(=O)[C@H](CC(C)C)NC(=O)[C@@H]2CCCN2C(=O)[C@H]([C@@H](C)CC)OC(=O)[C@H](C(C)C)N(C)C(=O)[C@H](C(C)C)NC(=O)C1(C)C (V[NMeV][Hmpa(2S,3S)]PLA; linker N-C via X2) | 6 | 23
3 | CCCCC[C@@H]1OC(=O)[C@H](C)NC(=O)[C@H](CC(C)C)NC(=O)[C@@H]2CCCN2C(=O)[C@H]([C@@H](C)CC)OC(=O)[C@H](C(C)C)N(C)C(=O)[C@H](C(C)C)NC(=O)C1(C)C (V[NMeV][Hmpa(2S,3S)]PLA; linker N-C via X3) | 11 | 18
